Where two headings read alike, the source gives them in different places. Values belong to the compound of their own block, whether it stands above or below them.
Legend:
α4β7 integrin = α4β7 integrin (Homo sapiens (Human), UniProt P13612+P26010); experiment: Integrin Adhesion Assay: Protocol 4 (MAdCAM-coated plate, RPMI-8866 cells with stable LOF mutation of the ITGB1 gene); assay type: cell-based
Summary of the method: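 RPMI-8866 cells with CRISPR/Cas9 knockout of ITGB1 (2×10^6/mL) were added to MAdCAM-coated wells with compound (1% DMSO) in HEPES/NaCl buffer with 1 mM MnCl2, 0.1 mM CaCl2 and 1% BSA, then incubated 1 h at 37 °C. After four washes, adherent cells were quantified by CellTiter-Glo luminescence. Percent inhibition versus DMSO and control compound was fitted to 4-parameter curves.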

α4β1 integrin = α4β1 integrin (Homo sapiens (Human), UniProt P05556+P13612); experiment: Integrin Adhesion Assay: Protocol 5 (VCAM-coated plate, RPMI-8866 cells with stable LOF mutation of the ITGB7 gene); assay type: cell-based
Sequence of α4β1 integrin (P13612 34-1032): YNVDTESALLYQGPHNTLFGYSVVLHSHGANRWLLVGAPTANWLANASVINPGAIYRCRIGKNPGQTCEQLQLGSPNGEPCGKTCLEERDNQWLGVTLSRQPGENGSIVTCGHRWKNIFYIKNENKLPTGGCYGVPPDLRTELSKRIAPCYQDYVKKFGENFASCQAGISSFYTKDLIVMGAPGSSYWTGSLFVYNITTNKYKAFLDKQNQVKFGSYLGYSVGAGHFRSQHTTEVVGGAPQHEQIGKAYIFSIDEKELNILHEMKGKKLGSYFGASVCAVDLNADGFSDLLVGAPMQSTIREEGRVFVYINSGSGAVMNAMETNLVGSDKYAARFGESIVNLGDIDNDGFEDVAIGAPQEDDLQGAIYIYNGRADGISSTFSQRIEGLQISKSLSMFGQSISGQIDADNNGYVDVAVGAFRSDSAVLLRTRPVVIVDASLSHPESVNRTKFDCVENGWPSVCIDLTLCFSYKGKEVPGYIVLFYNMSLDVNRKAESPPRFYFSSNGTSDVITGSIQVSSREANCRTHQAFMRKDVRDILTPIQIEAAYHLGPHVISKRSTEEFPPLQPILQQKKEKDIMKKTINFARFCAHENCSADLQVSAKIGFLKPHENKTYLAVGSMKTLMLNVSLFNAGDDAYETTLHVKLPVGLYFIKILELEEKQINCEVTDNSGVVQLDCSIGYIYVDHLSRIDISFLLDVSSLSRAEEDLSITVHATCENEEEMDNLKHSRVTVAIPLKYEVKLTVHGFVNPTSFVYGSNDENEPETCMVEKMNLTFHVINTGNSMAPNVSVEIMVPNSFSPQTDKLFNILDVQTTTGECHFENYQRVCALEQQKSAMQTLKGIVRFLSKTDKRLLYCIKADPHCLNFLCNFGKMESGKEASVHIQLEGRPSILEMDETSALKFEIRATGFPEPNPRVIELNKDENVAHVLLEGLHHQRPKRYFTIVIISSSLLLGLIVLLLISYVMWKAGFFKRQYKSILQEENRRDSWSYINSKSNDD
Sequence of α4β1 integrin (P05556 21-798): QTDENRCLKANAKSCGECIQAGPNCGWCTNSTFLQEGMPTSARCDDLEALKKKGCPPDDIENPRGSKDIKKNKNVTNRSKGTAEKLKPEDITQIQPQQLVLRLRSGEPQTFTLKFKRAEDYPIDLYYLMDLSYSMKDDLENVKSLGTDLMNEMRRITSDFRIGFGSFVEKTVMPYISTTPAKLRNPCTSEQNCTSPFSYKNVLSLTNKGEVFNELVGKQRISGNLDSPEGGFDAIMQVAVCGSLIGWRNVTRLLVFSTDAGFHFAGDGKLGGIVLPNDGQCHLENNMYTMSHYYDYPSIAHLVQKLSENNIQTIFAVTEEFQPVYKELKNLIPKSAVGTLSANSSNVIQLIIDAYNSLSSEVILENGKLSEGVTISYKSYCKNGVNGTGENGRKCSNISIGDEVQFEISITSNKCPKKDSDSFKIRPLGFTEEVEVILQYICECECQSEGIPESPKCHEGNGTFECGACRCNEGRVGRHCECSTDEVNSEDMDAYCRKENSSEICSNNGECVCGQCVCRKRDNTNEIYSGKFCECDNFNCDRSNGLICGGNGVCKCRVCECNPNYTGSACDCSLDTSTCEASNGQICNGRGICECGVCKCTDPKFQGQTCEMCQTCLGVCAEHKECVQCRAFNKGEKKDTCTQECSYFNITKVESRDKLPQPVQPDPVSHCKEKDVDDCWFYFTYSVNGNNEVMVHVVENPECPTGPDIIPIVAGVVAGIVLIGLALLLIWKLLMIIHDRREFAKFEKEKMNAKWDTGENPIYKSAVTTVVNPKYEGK
Summary of the method: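 RPMI-8866 B cells with CRISPR/Cas9 ITGB7 knockout (clonal, verified by flow cytometry) adhered to VCAM-coated wells for 1 h at 37° C in HEPES/NaCl buffer with 1 mM MnCl2, 0.1 mM CaCl2, 1% BSA, 1% DMSO. Bound cells quantified by CellTiter-Glo luminescence after washing; % inhibition versus DMSO and control, 4-parameter fit.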

[1] = Protocol 4, RPMI-8866 cells with LOF mutation of ITGB1, MAdCAM, read-out: Mean IC50 α4β7 KO
[2] = Protocol 5, RPMI-8866 cells with LOF mutation of ITGB7, VCAM, read-out: Mean IC50 α4β1 KO
[3] = RPMI-8866 cells with stable LOF mutation of the ITGB1 gene, read-out: Mean IC50 α4β7 KO^a
[4] = RPMI-8866 cells with stable LOF mutation of the ITGB7 gene, read-out: Mean IC50 α4β1 KO^b

Sequence of α4β7 integrin (P13612 34-1032): as the sequence (P13612 34-1032) above
Sequence of α4β7 integrin (P26010 20-798): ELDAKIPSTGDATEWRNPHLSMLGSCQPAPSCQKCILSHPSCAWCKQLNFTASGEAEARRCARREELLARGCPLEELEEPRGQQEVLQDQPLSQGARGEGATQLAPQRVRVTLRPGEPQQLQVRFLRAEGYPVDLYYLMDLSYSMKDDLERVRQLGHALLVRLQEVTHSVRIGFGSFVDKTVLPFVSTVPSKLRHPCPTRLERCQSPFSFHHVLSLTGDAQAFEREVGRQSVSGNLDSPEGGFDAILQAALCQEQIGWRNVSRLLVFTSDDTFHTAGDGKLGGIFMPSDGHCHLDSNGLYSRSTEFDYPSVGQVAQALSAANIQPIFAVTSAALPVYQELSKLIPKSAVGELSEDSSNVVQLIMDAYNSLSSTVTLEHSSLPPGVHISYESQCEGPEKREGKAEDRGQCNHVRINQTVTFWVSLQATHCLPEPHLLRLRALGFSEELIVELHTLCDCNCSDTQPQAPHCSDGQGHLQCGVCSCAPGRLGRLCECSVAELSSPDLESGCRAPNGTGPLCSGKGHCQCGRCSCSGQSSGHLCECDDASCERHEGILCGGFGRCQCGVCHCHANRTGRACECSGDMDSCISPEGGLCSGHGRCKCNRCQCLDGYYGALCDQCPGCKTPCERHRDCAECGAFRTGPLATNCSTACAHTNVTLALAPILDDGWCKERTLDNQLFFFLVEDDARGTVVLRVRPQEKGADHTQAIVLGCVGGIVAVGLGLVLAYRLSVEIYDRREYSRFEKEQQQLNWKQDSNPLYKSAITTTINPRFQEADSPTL

Compound: CN1CCC(c2cnc(-c3cccc4c(C[C@H](NC(=O)C5(C(F)(F)F)CCN(CC(F)(F)F)CC5)C(=O)O)cccc34)c(C(F)(F)F)c2)CC1 [Compound 757]
IC50 (α4β7 integrin; [1]): < 10 nM | IC50 (α4β1 integrin; [2]): 100 to 1000 nM

Compound: COc1ccc(CN2C[C@@H](C)O[C@@H](C)C2)c(OC)c1-c1cccc2c(C[C@H](NC(=O)c3c(C)cccc3F)C(=O)O)cccc12 [Compound 651]
IC50 (α4β7 integrin; [3]): < 10 nM | IC50 (α4β1 integrin; [4]): 100 to 1000 nM

Compound: COc1ccc(CN2CCC(F)(F)CC2)c(OC)c1-c1cccc2c(C[C@H](NC(=O)C3(C(F)(F)F)CCN([C@H]4COC[C@@H]4F)CC3)C(=O)O)cccc12 [Compound 669]
IC50 (α4β7 integrin; [3]): < 10 nM | IC50 (α4β1 integrin; [4]): > 1000 nM

Compound: O=C(O)[C@H](Cc1cccc2c(-c3cc4ccccc4cn3)cccc12)NC(=O)C1(C(F)(F)F)CCN(C2COC2)CC1 [Compound 525]
IC50 (α4β7 integrin; [3]): 10 to 100 nM | IC50 (α4β1 integrin; [4]): > 1000 nM

Compound: O=C(O)[C@H](Cc1cccc2c(-c3ncc(CN4CCCCC4)c4c3CCCC4)cccc12)NC(=O)C1(C(F)(F)F)CCN(CC(F)(F)F)CC1 [Compound 746]
IC50 (α4β7 integrin; [1]): < 10 nM | IC50 (α4β1 integrin; [2]): > 1000 nM

Compound: Cn1c(=O)c(-c2cccc3c(C[C@H](NC(=O)C4(C(F)(F)F)CCN(CC#N)CC4)C(=O)O)cccc23)c(C(F)(F)F)c2ccccc21 [Compound 538]
IC50 (α4β7 integrin; [3]): 10 to 100 nM | IC50 (α4β1 integrin; [4]): > 1000 nM

Compound: CC(=O)CN1CCC(C(=O)N[C@@H](Cc2cccc3c(-c4c(C(F)(F)F)c5ccccc5n(C)c4=O)cccc23)C(=O)O)(C(F)(F)F)CC1 [Compound 519]
IC50 (α4β7 integrin; [3]): < 10 nM | IC50 (α4β1 integrin; [4]): 100 to 1000 nM

Compound: CC1(C)CCN(Cc2cccc3c(-c4cccc5c(C[C@H](NC(=O)C6(C(F)(F)F)CCN(CC(F)(F)F)CC6)C(=O)O)cccc45)nccc23)CC1 [Compound 561]
IC50 (α4β7 integrin; [3]): < 10 nM | IC50 (α4β1 integrin; [4]): > 1000 nM

Compound: COc1ccc(CN2CC(F)C2)c(OC)c1-c1cccc2c(C[C@H](NC(=O)c3c(C)cccc3F)C(=O)O)cccc12 [Compound 590]
IC50 (α4β7 integrin; [3]): < 10 nM | IC50 (α4β1 integrin; [4]): > 1000 nM

Compound: COc1ccc(CN2CCC(C)CC2)c(OC)c1-c1cccc2c(C[C@H](NC(=O)c3c(C)cccc3F)C(=O)O)cccc12 [Compound 625]
IC50 (α4β7 integrin; [3]): < 10 nM | IC50 (α4β1 integrin; [4]): 100 to 1000 nM

Compound: COc1cccc(OCCN2CCCCC2)c1-c1cccc2c(C[C@H](NC(=O)C3(C(F)(F)F)CCN(CC(F)(F)F)CC3)C(=O)O)cccc12 [Compound 729]
IC50 (α4β7 integrin; [1]): < 10 nM | IC50 (α4β1 integrin; [2]): 100 to 1000 nM

Compound: COc1ccc(CN(C)C)c(C(F)(F)F)c1-c1cccc2c(C[C@H](NC(=O)C3(C(F)(F)F)CCN(CC(F)(F)F)CC3)C(=O)O)cccc12 [Compound 563]
IC50 (α4β7 integrin; [3]): < 10 nM | IC50 (α4β1 integrin; [4]): 100 to 1000 nM

Compound: COc1ccc(CN2CCCC(F)C2)c(C(F)(F)F)c1-c1cccc2c(C[C@H](NC(=O)c3c(C)cccc3F)C(=O)O)cccc12 (some centres unmarked) [Compound 572]
IC50 (α4β7 integrin; [3]): 10 to 100 nM | IC50 (α4β1 integrin; [4]): > 1000 nM

Compound: COc1ccc2ccnc(-c3cccc4c(C[C@H](NC(=O)C5(C(F)(F)F)CCN(CC(F)(F)F)CC5)C(=O)O)cccc34)c2c1 [Compound 777]
IC50 (α4β7 integrin; [1]): 10 to 100 nM | IC50 (α4β1 integrin; [2]): > 1000 nM

Other lines, results leading:

IC50 (α4β7 integrin; [1]): 10 to 100 nM | IC50 (α4β1 integrin; [2]): 100 to 1000 nM
Compound: COc1ccc(CN2CCC(F)(F)CC2)c(OC)c1-c1cccc2c(C[C@H](NC(=O)C3(C(F)(F)F)CCN(CC(F)F)CC3)C(=O)O)cccc12 [Compound 946]

IC50 (α4β7 integrin; [1]): < 10 nM | IC50 (α4β1 integrin; [2]): 100 to 1000 nM
Compound: COc1cccc(CCN2CCCC(C)(C)C2)c1-c1cccc2c(C[C@H](NC(=O)C3(C(F)(F)F)CCN(CC(F)F)CC3)C(=O)O)cccc12 [Compound 984]

IC50 (α4β7 integrin; [1]): < 10 nM | IC50 (α4β1 integrin; [2]): 100 to 1000 nM
Compound: COc1ccc(CN2CCCC(C)C2)c(OC)c1-c1cccc2c(C[C@H](NC(=O)C3(C(F)(F)F)CCN(CC(F)(F)F)CC3)C(=O)O)cccc12 (some centres unmarked) [Compound 790]

IC50 (α4β7 integrin; [1]): 10 to 100 nM | IC50 (α4β1 integrin; [2]): 100 to 1000 nM
Compound: Cn1c(=O)c(-c2cccc3c(C[C@H](NC(=O)C4(C(F)(F)F)CCN(CC(F)(F)F)CC4)C(=O)O)cccc23)c(C(F)(F)F)c2cc(CN3CCC(c4ccccc4)CC3)ccc21 [Compound 837]

IC50 (α4β7 integrin; [1]): 100 to 1000 nM | IC50 (α4β1 integrin; [2]): > 1000 nM
Compound: COCc1ccc2c(c1)c(C(F)(F)F)c(-c1cccc3c(CC(NC(=O)c4c(F)cccc4F)C(=O)O)cccc13)c(=O)n2C (centres unmarked) [Compound 1041]

IC50 (α4β7 integrin; [1]): 100 to 1000 nM | IC50 (α4β1 integrin; [2]): > 1000 nM
Compound: COc1ccc(CN2CCC(F)(F)CC2)c(C(F)(F)F)c1-c1cccc2c(C[C@H](NC(=O)c3c(C)cccc3F)C(=O)O)cccc12 [Compound 823]

IC50 (α4β7 integrin; [1]): 10 to 100 nM | IC50 (α4β1 integrin; [2]): > 1000 nM
Compound: O=C(O)[C@H](Cc1cccc2c(-c3ncccc3CCN3CCCCC3)cccc12)NC(=O)C1(C(F)(F)F)CCN(CC(F)(F)F)CC1 [Compound 965]

IC50 (α4β7 integrin; [1]): < 10 nM | IC50 (α4β1 integrin; [2]): > 1000 nM
Compound: O=C(O)[C@H](Cc1cccc2c(-c3nccc4cccc(CCN5CCCCC5)c34)cccc12)NC(=O)C1(C(F)(F)F)CCN(CC(F)(F)F)CC1 [Compound 982]
